From PubChem BioAssay (NCI)
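A five-concentration, 48-hour dose response in 96-well plates underlies each endpoint, interpolated linearly between surrounding concentrations. The concentration for full growth arrest is given as TGI.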

Key:
Assay in all cases: DTP human tumour cell line panel, 48 h
[1] = test system: SF-295 CNS
[2] = test system: SF-268 CNS
[3] = test system: SNB-75 CNS
[4] = test system: COLO 205 colon
[5] = test system: HOP-62 NSCLC
[6] = test system: MDA-MB-231 breast
[7] = test system: HCC-2998 colon
[8] = test system: TK-10 renal
[9] = test system: K-562 leukemia
[10] = test system: CCRF-CEM leukemia
[11] = test system: DU-145 prostate
[12] = test system: HOP-92 NSCLC
[13] = test system: IGROV1 ovarian
[14] = test system: MDA-MB-435
[15] = test system: PC-3 prostate
[16] = test system: MOLT-4 leukemia
[17] = test system: LOX IMVI melanoma
[18] = test system: A549 NSCLC
[19] = test system: SF-539 CNS
[20] = test system: NCI-H460 lung
[21] = test system: MALME-3M melanoma
[22] = test system: HT29 colon
[23] = test system: OVCAR-4 ovarian
[24] = test system: KM12 colon
[25] = test system: SNB-19 CNS
[26] = test system: T-47D breast
[27] = test system: OVCAR-3 ovarian
[28] = test system: 786-0 renal
[29] = test system: UO-31 renal
[30] = test system: M14 melanoma
[31] = test system: U251 CNS
[32] = test system: HS 578T breast
[33] = test system: NCI-H226 lung
[34] = test system: SR leukemia
[35] = test system: SK-MEL-5 melanoma
[36] = test system: ACHN renal
[37] = test system: SN12C renal
[38] = test system: UACC-62 melanoma
[39] = test system: SK-MEL-2 melanoma
[40] = test system: SW-620 colon
[41] = test system: RXF 393 renal
[42] = test system: MCF7 breast
[43] = test system: UACC-257 melanoma
[44] = test system: SK-OV-3 ovarian
[45] = test system: OVCAR-8 ovarian
[46] = test system: MDA-N
[47] = test system: RPMI-8226 leukemia
[48] = test system: NCI-H522 lung
[49] = test system: CAKI-1 renal
[50] = test system: HCT-15 colon
[51] = test system: A498 renal
[52] = test system: HL-60(TB) leukemia
[53] = test system: HCT-116 colon
[54] = test system: BT-549 breast
[55] = test system: NCI-H23 lung
[56] = test system: OVCAR-5 ovarian
[57] = test system: NCI/ADR-RES ovarian
[58] = test system: SK-MEL-28 melanoma
[59] = test system: EKVX NSCLC

Measured: TGI

CC(C)(C)OC(=O)NCCNC(=O)CN(CC(=O)O)C1CCCCC1N(CC(=O)O)CC(=O)O (stereo not drawn)
not listed: [59]
> 100 µM: all other assays above

O=[N+]([O-])c1ccc(Cl)cc1N/N=C/c1cccs1
not listed: [12] | [17] | [21] | [39] | [51] | [56]
> 100 µM: all other assays above

CCOC(=O)C12C(=O)CCN1CCc1ccccc1C2C (stereo not drawn)
not listed: [3] | [7] | [10] | [20]
> 100 µM: all other assays above

CC(=O)C(C(=O)C(C)(C)C)C(=O)C(C)(C)C
not listed: [13] | [22] | [27] | [33] | [51] | [55] | [59]
> 100 µM: all other assays above
